Values quoted from earlier work as cited in US9012510B2, “Oleoylethanolamide based functional mesophases” (Nestec S.A., priority 2008, dated 2015).

Details: Thabuis et al., Lipid Technology 2007, 19, 225

## CCCCCCCC/C=C\CCCCCCCC(=O)NCCO [OEA, oleoylethanolamide]
  effect of administration on food intake and gain in body mass: potent and persistent decrease in food intake and gain in body mass
